Source: patent US9657043B2, “Amine compound and use thereof for medical purposes” (MITSUBISHI TANABE PHARMA CORPORATION, priority 2012, dated 2017)

What follows are molecules tested on peripheral blood lymphocyte count (assay: Evaluation of peripheral blood lymphocyte count-decreasing effect in mice). Details: Mus musculus, ip, intraperitoneal administration, 24 hr after administration, in 20% cyclodextrin, read-out: ED50 (dose necessary for 50% reduction of the lymphocyte count of vehicle group as 100%).
Type: in vivo, male BALB/c mice
Protocol: The compound of the present invention was dissolved or suspended in 20% cyclodextrin (manufactured by NIHON SHOKUHIN KAKO CO., LTD), and intraperitoneally administered to a 7- to 10-week-old male BALB/c mice (CHARLES RIVER LABORATORIES, JAPAN INC.) at a dose of 0.001-10 mg/kg body weight. After 24 hr from the administration of the compound of the present invention, peripheral blood (about 0.3 ml) was drawn from the postcava of the mouse with a heparin sodium (manufactured by NovoNordisk)-treated tuberculin syringe (manufactured by TERUMO CORPORATION) under ether anesthesia. The blood (0.1 ml) was hemolysed with an automatic hemolysis processing apparatus (TQ-Prep, manufactured by BECKMAN COULTER, Inc.), and the number of lymphocytes was counted with a Flow Cytometer (CYTOMICS FC 500, manufactured by BECKMAN COULTER, Inc.) by a gating method using scattering at the front and the side of the laser beam as indices and using Flow-Count™ Fluorospheres (manufactured by BECKMAN COULTER, Inc.), whose standard particle count is known, as internal standard. A dose necessary for 50% reduction of the lymphocyte count of vehicle group as 100% was calculated and used as ED50 value (mg/kg body weight).

| Compound | ED50 |
| --- | --- |
| CCCCCCOc1ccc2oc3ccc(CCC(N)(CO)CO)cc3c(=O)c2c1 [Example 23, 2-[3-amino-4-hydroxy-3-(hydroxymethyl)butyl]-7-hexyloxy-9H-xanthen-9-one] | 0.03 mg/kg |
| NC(CO)(CO)CCc1ccc2oc3cc(Oc4ccc(F)cc4)ccc3c(=O)c2c1 [Example 105, 2-[3-amino-4-hydroxy-3-(hydroxymethyl)butyl]-6-(4-fluorophenoxy)-9H-xanthen-9-one] | 0.22 mg/kg |
| CCCC/C=C/c1ccc2oc3cc(CCC(N)(CO)CO)ccc3c(=O)c2c1 [Example 180, 6-[3-amino-4-hydroxy-3-(hydroxymethyl)butyl]-2-[(1E)-hex-1-en-1-yl]-9H-xanthen-9-one] | 0.03 mg/kg |
| NC(CO)(CO)CCc1ccc2sc3ccc(Oc4cccc(C(F)(F)F)c4)cc3c(=O)c2c1 [Example 44, 2-[3-amino-4-hydroxy-3-(hydroxymethyl)butyl]-7-[3-(trifluoromethyl)phenoxy]-9H-thioxanthen-9-one] | 0.01 mg/kg |
| NC(CO)(CO)CCc1ccc2oc3cc(-c4cccc(C(F)(F)F)c4)ccc3c(=O)c2c1 [Example 172, 2-[3-amino-4-hydroxy-3-(hydroxymethyl)butyl]-6-[3-(trifluoromethyl)phenyl]-9H-xanthen-9-one] | 0.09 mg/kg |
| CCCCCOc1ccc2oc3ccc(CCC(N)(CO)CO)cc3c(=O)c2c1 [Example 22, 2-[3-amino-4-hydroxy-3-(hydroxymethyl)butyl]-7-pentyloxy-9H-xanthen-9-one] | 0.07 mg/kg |
| NC(CO)(CO)CCc1ccc2sc3cc(Oc4ccc(Cl)cc4)ccc3c(=O)c2c1 [Example 55, 2-[3-amino-4-hydroxy-3-(hydroxymethyl)butyl]-6-(4-chlorophenoxy)-9H-thioxanthen-9-one] | 0.03 mg/kg |
| CCCCCCOc1ccc2c(=O)c3ccc(CCC(N)(CO)CO)cc3sc2c1 [Example 20, 3-[3-amino-4-hydroxy-3-(hydroxymethyl)butyl]-6-hexyloxy-9H-thioxanthen-9-one] | 0.05 mg/kg |
| NC(CO)(CO)CCc1ccc2c(=O)c3cc(Oc4ccc(F)c(Cl)c4)ccc3oc2c1 [Example 138, 6-[3-amino-4-hydroxy-3-(hydroxymethyl)butyl]-2-(3-chloro-4-fluorophenoxy)-9H-xanthen-9-one] | 0.06 mg/kg |
| COc1ccc(Oc2ccc3c(=O)c4ccc(CCC(N)(CO)CO)cc4oc3c2)cc1 [Example 143, 3-[3-amino-4-hydroxy-3-(hydroxymethyl)butyl]-6-(4-methoxyphenoxy)-9H-xanthen-9-one] | 0.14 mg/kg |
| NC(CO)(CO)CCc1ccc2sc3ccc(Oc4cccc(Cl)c4)cc3c(=O)c2c1 [Example 76, 2-[3-amino-4-hydroxy-3-(hydroxymethyl)butyl]-7-(3-chlorophenoxy)-9H-thioxanthen-9-one] | 0.04 mg/kg |
| NC(CO)(CO)CCc1ccc2oc3cc(Oc4ccc(F)c(Cl)c4)ccc3c(=O)c2c1 [Example 116, 2-[3-amino-4-hydroxy-3-(hydroxymethyl)butyl]-6-(3-chloro-4-fluorophenoxy)-9H-xanthen-9-one] | 0.09 mg/kg |
| Cl.NC(CO)(CO)CCc1ccc2oc3cc(-c4cccc(OC(F)(F)F)c4)ccc3c(=O)c2c1 [Example 164, 2-[3-amino-4-hydroxy-3-(hydroxymethyl)butyl]-6-[3-(trifluoromethoxy)phenyl]-9H-xanthen-9-one] | 0.04 mg/kg |
| COc1ccc(Oc2ccc3c(=O)c4cc(CCC(N)(CO)CO)ccc4oc3c2)cc1 [Example 108, 2-[3-amino-4-hydroxy-3-(hydroxymethyl)butyl]-6-(4-methoxyphenoxy)-9H-xanthen-9-one] | 0.05 mg/kg |
| CCCCCOc1ccc2c(=O)c3ccc(CCC(N)(CO)CO)cc3oc2c1 [Example 41, 3-[3-amino-4-hydroxy-3-(hydroxymethyl)butyl]-6-pentyloxy-9H-xanthen-9-one] | 0.37 mg/kg |
| NC(CO)(CO)CCc1ccc2sc3cc(Oc4cccc(C(F)(F)F)c4)ccc3c(=O)c2c1 [Example 54, 2-[3-amino-4-hydroxy-3-(hydroxymethyl)butyl]-6-[3-(trifluoromethyl)phenoxy]-9H-thioxanthen-9-one] | 0.02 mg/kg |
| Cl.NC(CO)(CO)CCc1ccc2c(=O)c3cc(Oc4cccc(C(F)(F)F)c4)ccc3oc2c1 [Example 83, 6-[3-amino-4-hydroxy-3-(hydroxymethyl)butyl]-2-[3-(trifluoromethyl)phenoxy]-9H-xanthen-9-one] | 0.05 mg/kg |
